Test results taken from US9845330B2, “6-nitro-2,3-dihydroimidazo[2,1-b]oxazoles and a process for the preparation thereof” (priority 2013, dated 2017).
Values after ≈ are worked out from the molar mass of the structure shown. Like-named read-outs stand apart in the source and are kept apart here.

Tests used:
[1] = system: M. tuberculosis H37Rv (ATCC 27294); experiment: MIC by broth dilution method, M. tuberculosis H37Rv; type: cell-based; settings: Mycobacterium tuberculosis, 504 h
[2] = system: macrophage J774 cells line; experiment: Cytotoxicity assay (MTT) in macrophage J774 cells; type: cell-based; settings: J774 cells, 24 hrs, MTT
Method: The study was carried out using macrophage J774 cells line (ATCC-USA). Cells were grown in Rosewell Park Memorial Institute Medium (RPMI) containing 10% fetal calf serum (FCS) and supplemented with 75 mg/liter penicillin, 100 mg/liter streptomycin, 110 mg/liter Sodium pyruvate, 2.38 gm/liter HEPES, 0.05 mM 2 β-mercaptoethanol, and 2 gm/liter NaHCO3, in a humidified atmosphere in 5% CO2 at 37° C., and were sub-cultured at 1:4 ratio once a week.
Cells were plated at a density of 3×10^4 cells/cm^2 and maintained in culture medium for 12 hours. Cells were seeded onto 96-well flat bottom plates and FCS was reduced to 5% for the experiment. Stock solutions of compounds IA1 to IIC10 were prepared fresh to avoid oxidation. Cells were incubated with the compounds (40 μg/ml) for 24 hrs.
After the completion of incubation, the medium was removed and cell viability was evaluated by assaying for the ability of functional mitochondria to catalyze the reduction of 3-(4,5-dimethylthiazol-2-yl)-2,5-diphenyltetrazolium bromide (MTT) to form formazan salt by mitochondrial dehydrogenases, and determined by Elisa reader at 450 nm (Multiskan Spectrum; Thermo Electron Corporation, USA). Percentage cytotoxicity was calculated with respect to the untreated cells.

[3] = broth dilution, 3 weeks, read-out: MIC M. tb H37Rv
[4] = text summary: sensitive H37Rv as well as MDR and XDR strains of M. tuberculosis, read-out: MIC value

C[C@]1(COc2ccccc2-n2cc(-c3ccc(C(F)(F)F)cc3)nn2)Cn2cc([N+](=O)[O-])nc2O1 [IA22, (R)-2-{2-[4-(4-trifluoromethylphenyl)-1H-1,2,3-triazol-1-yl]phenoxymethyl}-2,3-dihydro-2-methyl-6-nitroimidazo[2,1-b]oxazole]
MIC [1, 3]: 4 µg/mL (≈ 8.22 µM) | Cytotoxicity [2]: >40 µg/mL

C[C@]1(COc2ccccc2-n2cc(-c3ccc(OC(F)(F)F)cc3)nn2)Cn2cc([N+](=O)[O-])nc2O1 [IA23, (R)-2-{2-[4-(4-trifluoromethoxyphenyl)-1H-1,2,3-triazol-1-yl]phenoxymethyl}-2,3-dihydro-2-methyl-6-nitroimidazo[2,1-b]oxazole]
MIC [1, 3]: 4 µg/mL (≈ 7.96 µM) | Cytotoxicity [2]: >40 µg/mL

C[C@]1(COc2cccc(-n3cc(COc4ccc(C(F)(F)F)cc4)nn3)c2)Cn2cc([N+](=O)[O-])nc2O1 [IA35]
MIC [1, 3]: 2 µg/mL (≈ 3.87 µM) | Cytotoxicity [2]: >40 µg/mL

C[C@]1(COc2cccc(-n3cc(COc4ccccc4F)nn3)c2)Cn2cc([N+](=O)[O-])nc2O1 [IA36]
MIC [1, 3]: 2 µg/mL (≈ 4.29 µM) | Cytotoxicity [2]: >40 µg/mL

Cc1ccc(OCc2cn(-c3cccc(OC[C@@]4(C)Cn5cc([N+](=O)[O-])nc5O4)c3)nn2)cc1 [IA37]
MIC [1, 3]: 4 µg/mL (≈ 8.65 µM) | Cytotoxicity [2]: >40 µg/mL

CC(C)c1ccc(OCc2cn(-c3cccc(OC[C@@]4(C)Cn5cc([N+](=O)[O-])nc5O4)c3)nn2)cc1 [IA38]
MIC [1, 3]: 4 µg/mL (≈ 8.15 µM) | Cytotoxicity [2]: >40 µg/mL

C[C@]1(COc2ccc(-n3nnnc3-c3ccccc3)cc2)Cn2cc([N+](=O)[O-])nc2O1 [IB1, (R)-2-{4-[5-phenyl-1H-tetrazol-1-yl]phenoxymethyl}-2,3-dihydro-2-methyl-6-nitroimidazo[2,1-b]oxazole]
MIC [1, 3]: 2 µg/mL (≈ 4.77 µM) | MIC [1, 4]: 1 to 4 µg/mL (≈ 2.38 to 9.54 µM) | Cytotoxicity [2]: >40 µg/mL

C[C@]1(COc2ccc(-n3nnnc3-c3ccc(OC(F)(F)F)cc3)cc2)Cn2cc([N+](=O)[O-])nc2O1 [IB2, (R)-2-{4-[5-(4-trifluoromethoxyphenyl)-1H-tetrazol-1-yl]phenoxymethyl}-2,3-dihydro-2-methyl-6-nitroimidazo[2,1-b]oxazole]
MIC [1, 3]: 2 µg/mL (≈ 3.97 µM) | MIC [1, 4]: 1 to 4 µg/mL (≈ 1.99 to 7.95 µM) | Cytotoxicity [2]: >40 µg/mL

Cc1ccc(-c2nnnn2-c2ccc(OC[C@@]3(C)Cn4cc([N+](=O)[O-])nc4O3)cc2)cc1 [IB3, (R)-2-{4-[5-(4-methylphenyl)-1H-tetrazol-1-yl]phenoxymethyl}-2,3-dihydro-2-methyl-6-nitroimidazo[2,1-b]oxazole]
MIC [1, 3]: 4 µg/mL (≈ 9.23 µM) | MIC [1, 4]: 1 to 4 µg/mL (≈ 2.31 to 9.23 µM) | Cytotoxicity [2]: >40 µg/mL

C[C@]1(COc2ccc(-n3nnnc3-c3ccc(F)cc3)cc2)Cn2cc([N+](=O)[O-])nc2O1 [IB4, (R)-2-{4-[5-(4-fluorophenyl)-1H-tetrazol-1-yl]phenoxymethyl}-2,3-dihydro-2-methyl-6-nitroimidazo[2,1-b]oxazole]
MIC [1, 3]: 4 µg/mL (≈ 9.15 µM) | MIC [1, 4]: 1 to 4 µg/mL (≈ 2.29 to 9.15 µM) | Cytotoxicity [2]: >40 µg/mL

C[C@]1(COc2ccc(-n3nnnc3-c3ccc(C(F)(F)F)cc3)cc2)Cn2cc([N+](=O)[O-])nc2O1 [IB5, (R)-2-{4-[5-(4-trifluoromethylphenyl)-1H-tetrazol-1-yl]phenoxymethyl}-2,3-dihydro-2-methyl-6-nitroimidazo[2,1-b]oxazole]
MIC [1, 3]: 1 µg/mL (≈ 2.05 µM) | MIC [1, 4]: 1 to 4 µg/mL (≈ 2.05 to 8.21 µM) | Cytotoxicity [2]: >40 µg/mL

CCc1ccc(-c2nnnn2-c2ccc(OC[C@@]3(C)Cn4cc([N+](=O)[O-])nc4O3)cc2)cc1 [IB6, (R)-2-{4-[5-(4-ethylphenyl)-1H-tetrazol-1-yl]phenoxymethyl}-2,3-dihydro-2-methyl-6-nitroimidazo[2,1-b]oxazole]
MIC [1, 3]: 2 µg/mL (≈ 4.47 µM) | MIC [1, 4]: 1 to 4 µg/mL (≈ 2.23 to 8.94 µM) | Cytotoxicity [2]: >40 µg/mL

C[C@]1(COc2ccc(-n3nnnc3Oc3ccc(F)cc3)cc2)Cn2cc([N+](=O)[O-])nc2O1 [IB7, (R)-2-{4-[5-(4-fluorophenoxy)-1H-tetrazol-1-yl]phenoxymethyl}-2,3-dihydro-2-methyl-6-nitroimidazo[2,1-b]oxazole]
MIC [1, 3]: 2 µg/mL (≈ 4.41 µM) | MIC [1, 4]: 1 to 4 µg/mL (≈ 2.21 to 8.82 µM) | Cytotoxicity [2]: >40 µg/mL
